The numbers were not newly measured in patent publication US8614222B2, “Methods of preventing and treating low bone mass diseases” (The Trustees of Columbia University in the City of New York, priority 2008, dated 2013), which cites them from elsewhere.

For the data set, the target named is rb 5-HT1B receptors (Oryctolagus cuniculus, UniProt P49144). The following applies: cited from earlier work.
rb 5-HT1B receptors, sequence (P49144 whole entry): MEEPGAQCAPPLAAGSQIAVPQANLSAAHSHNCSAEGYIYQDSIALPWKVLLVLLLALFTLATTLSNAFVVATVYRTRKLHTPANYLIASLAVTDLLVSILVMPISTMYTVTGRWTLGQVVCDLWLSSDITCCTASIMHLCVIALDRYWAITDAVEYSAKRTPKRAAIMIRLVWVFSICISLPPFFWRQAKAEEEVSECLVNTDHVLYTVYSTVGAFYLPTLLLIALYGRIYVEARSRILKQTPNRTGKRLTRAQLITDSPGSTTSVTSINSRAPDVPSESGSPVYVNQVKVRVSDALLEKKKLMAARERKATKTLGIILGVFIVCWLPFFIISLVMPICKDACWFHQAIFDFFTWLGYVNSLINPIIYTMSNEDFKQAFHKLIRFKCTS

As to `CSc1ccc2c(c1)C(N1CCN(C)CC1)Cc1ccccc1S2` (stereo not shown) [methiothepin], the “behaviour at rb 5-HT1B receptors” value is “as silent, competitive antagonists”.
